Results from publication PMC6668378, “Maturation of coagulation factor IX during Xase formation as deduced using factor VIII‐derived peptides” (FEBS Open Bio, 2019).
Read-outs that look alike come from different tables or passages of the source. Square brackets hold non-standard residues; d marks the D form. Ends that are not written are not given here. Peptide text beside a SMILES is read from it. sY = N[C@@H](Cc1ccc(OS(=O)(=O)O)cc1)C(=O)O

Experiments:
FIXa R170L = target: T1, FIXa R170L (Homo sapiens, UniProt P00740, R384L); assay: SAM5 binding of activated FIXa R170L (Padua) to immobilized FVIIIa-derived peptide; conditions: no additive, FIXa R170L as analyte 10-250 nM, pH 7.5, 5 mM CaCl2
T1 construct: made in house; host or cells: Escherichia coli
T1 sequence (P00740 227-461 R384L): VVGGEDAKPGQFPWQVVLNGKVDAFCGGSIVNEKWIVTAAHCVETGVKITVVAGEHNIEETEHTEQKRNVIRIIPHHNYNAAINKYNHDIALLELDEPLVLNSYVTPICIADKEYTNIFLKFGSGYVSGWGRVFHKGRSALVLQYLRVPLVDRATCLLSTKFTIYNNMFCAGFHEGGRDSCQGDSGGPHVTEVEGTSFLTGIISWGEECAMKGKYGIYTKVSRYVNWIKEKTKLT
T1 sequence (P00740 47-191 partner limits assumed): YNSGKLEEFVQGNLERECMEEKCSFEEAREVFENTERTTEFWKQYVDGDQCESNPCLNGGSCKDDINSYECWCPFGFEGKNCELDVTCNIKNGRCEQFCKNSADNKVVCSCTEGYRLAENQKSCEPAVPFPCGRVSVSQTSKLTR
Protocol: (§1) Factor IX protein variants were expressed in Escherichia coli, refolded, purified and activated as described elsewhere 8, 9, 10.
(§2) The factor VIII‐derived peptides Ser558‐Gln565 (SVDQRGNQ) and Lys713‐Arg740 (KHTGDsYsYEDSsYEDISAYLLSKNNAIEPR; sY: sulfotyrosine) were purchased from JPT Peptide Technologies. Quality was controlled by HPLC and mass spectrometry and confirmed to be of better than 90% homogeneity.
(§3) Prior to the chip calibration at 22 °C, the instrument was flushed with a flow rate of 40 μL·min^−1 for 5 to 10 min. Chip calibration was performed using the SAM5 program with gain of 180 and a phase difference of 0.363.
(§4) The SAM5 instrument with a dextran‐COOH‐coated gold chip (NanoTemper Technologies) was equilibrated using filtered and degassed PBS running buffer, and the chip was calibrated as described above. 1‐ethyl‐3‐(3‐dimethylaminopropyl) carbodiimide (EDC) and N‐hydroxysuccinimide (NHS) were dissolved in ddH2O to a final concentration of 400 mM and 100 mM, respectively. To activate the chip, EDC and NHS were mixed at equal volume, resulting in the final concentrations of 200 mM EDC and 50 mM NHS. […]
(§5) Firstly, pumps were washed using filtered and degassed running buffer (20 mM HEPES pH 7.5, 150 mM NaCl, 5 mM CaCl2). […] The sensogram SAM5 data were exported to Origin and TraceDrawer, allowing to analyse and quantify the protein binding affinities, as described in the SAM5 user manual.

FIX wt = target: T2, FIX wt (Homo sapiens, UniProt P00740); assay: SAM5 binding of zymogenic FIX wt to immobilized FVIIIa-derived peptide; conditions: no additive; peptide immobilized on carboxymethyl-dextran chip, FIX wt 10-250 nM in mobile phase, 40 μL/min, 4 min association, 4 min dissociation, one-to-one two-state model; 20 mM HEPES pH 7.5, 150 mM NaCl, 5 mM CaCl2
T2 construct: made in house; host or cells: Escherichia coli
T2 sequence (P00740 29-461 limits assumed): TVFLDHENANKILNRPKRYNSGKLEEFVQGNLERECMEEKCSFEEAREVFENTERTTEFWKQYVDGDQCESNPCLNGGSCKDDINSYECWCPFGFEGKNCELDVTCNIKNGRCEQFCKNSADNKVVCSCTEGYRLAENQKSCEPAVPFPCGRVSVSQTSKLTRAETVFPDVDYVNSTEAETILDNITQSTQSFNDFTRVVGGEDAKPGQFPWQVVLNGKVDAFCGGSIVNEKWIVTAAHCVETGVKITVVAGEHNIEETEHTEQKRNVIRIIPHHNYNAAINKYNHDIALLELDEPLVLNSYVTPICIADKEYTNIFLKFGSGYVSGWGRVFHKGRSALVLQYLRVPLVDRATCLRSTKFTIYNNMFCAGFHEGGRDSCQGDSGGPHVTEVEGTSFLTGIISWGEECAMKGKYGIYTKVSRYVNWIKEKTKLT
Protocol: as §1, §2, §3, §4
(§6) Firstly, pumps were washed using filtered and degassed running buffer (20 mM HEPES pH 7.5, 150 mM NaCl, 5 mM CaCl2). […] The sensogram SAM5 data were exported to Origin and TraceDrawer, allowing to analyse and quantify the protein binding affinities, as described in the SAM5 user manual. […]

FIX‐R170L = target: T3, FIX‐R170L (Homo sapiens, UniProt P00740, R384L); assay: SAM5 binding of zymogenic FIX-R170L (Padua) to immobilized FVIIIa-derived peptide; conditions: no additive, FIX-R170L as analyte 10-250 nM, pH 7.5, 5 mM CaCl2
T3 construct: made in house; host or cells: Escherichia coli
T3 sequence (P00740 133-461 R384L limits assumed): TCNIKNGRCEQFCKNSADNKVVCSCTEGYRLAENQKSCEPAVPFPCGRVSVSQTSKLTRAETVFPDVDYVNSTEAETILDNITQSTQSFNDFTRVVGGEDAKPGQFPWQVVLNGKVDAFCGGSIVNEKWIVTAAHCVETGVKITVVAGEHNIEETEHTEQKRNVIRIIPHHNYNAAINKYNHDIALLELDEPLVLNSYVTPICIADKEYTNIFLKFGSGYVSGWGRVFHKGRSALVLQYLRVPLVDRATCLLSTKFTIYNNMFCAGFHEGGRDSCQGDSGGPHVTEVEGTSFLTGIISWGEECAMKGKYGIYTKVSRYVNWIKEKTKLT
Protocol: as §1, §2, §3, §4, §5

FIXa wt = target: T4, FIXa wt (Homo sapiens, UniProt P00740); assay: SAM5 binding of activated FIXa wt to immobilized FVIIIa-derived peptide; conditions: no additive, FIXa wt as analyte 10-250 nM, pH 7.5, 5 mM CaCl2
T4 construct: made in house; host or cells: Escherichia coli
T4 sequence (P00740 227-461 limits assumed): as the sequence (P00740 227-461 R384L) above, with L158R counted along it
T4 sequence (P00740 47-191 partner limits assumed): as the sequence (P00740 47-191 partner limits assumed) above
Protocol: as §1, §2, §3, §4, §5

[1] = tested on: activation peptide of factor IX and factor X; conditions: cited from earlier work; for affinity towards activation peptide binding site relative to active site: factor IX and factor X
Excerpt: In the protease factors IX and X, proteolytic activation at Arg180 (FX: Arg194) and Arg145 releases an activation peptide, triggering a conformational disorder‐to‐order transition in the serine protease domain (Figs 2 and S1). The activation peptide is positioned between the light chain (consisting of the N‐terminal Gla, EGF1 and EGF2 domains) and the trypsin‐like serine protease domain. Light and heavy chains remain covalently linked via a disulfide bond. In both factor IX and factor X, the activation peptide harbours an intriguing high‐affinity binding site for benzamidine/arginine, exceedin ...

[2] = target: activated factor VIIIa (FVIIIa); assay: Surface acoustic wave (SAM5) binding of FIX(a) variants to immobilized activated factor VIIIa; conditions: for Kd: FVIIIa immobilized on dextran chip, SAM5 Blue surface acoustic wave, analyte 10-250 nM, 40 μL/min, 20 mM HEPES pH 7.5, 150 mM NaCl, 5 mM CaCl2, read-out: Kd, interaction with activated factor VIIIa
Protocol: pro‐FVIII was generously provided by Baxter Biosciences (Vienna, Austria). Human thrombin was purchased from Sigma. For activation, 100 μg FVIII lyophilisate was dissolved in ddH2O and spin‐dialysed by repeated concentration in 30 kDa cut‐off Amicon concentrators to a final concentration of ~ 0.2 mg·mL^−1. FVIII was activated by thrombin similar to protocols described elsewhere 11, 12. Briefly, thrombin was dissolved in 20 mM Hepes, pH 7.5, 100 mM NaCl and 5 mM CaCl2. 1 unit of thrombin was added to 1000 units of FVIII (100 μg) and incubated for 15 min at 37 °C without shaking. The protein mixture was then dialysed by in total four centrifugation steps against a 4 °C cold wash buffer consisting of 50 mM Hepes, pH 7.4, 300 mM NaCl and 2.5 mM CaCl2. The reaction was stopped after the second concentration step by adding 20 μL 50 mM PMSF to inhibit thrombin. The activation of FVIIIa was controlled by SDS/PAGE to observe the A1, A2 and A3‐C1‐C2 at ~55 kDa, 40 kDa and 70 kDa, respectively.
as §3
as §4, with “NHS. The mixture was rapidly placed into position A1 of the tray holder.” for “NHS.”
as §6

[3] = tested on: coagulation factor VIII (nonactivated FVIII); assay: Surface acoustic wave (SAM5) binding of FIX(a) variants to immobilized factor VIII
Protocol: as §3
as §4, with “NHS. The mixture was rapidly placed into position A1 of the tray holder. If carried out properly, the baseline will increase. Subsequently, the ligand (protein ligands at 250–500 nM concentration, peptidic ligands at 100 μM to 1 mM concentration) was placed into the tray holder at position A1. The binding of the ligand to the dextran matrix is based on electrostatic interactions.” for “NHS.”
as §6

| Kd (FIXa R170L) [µM] | Kd (FIX wt) [µM] | Kd (FIX‐R170L) [µM] | Kd (FIXa wt) [µM] | Compound | affinity towards activation peptide binding site relative to active site [1] | also measured |
| --- | --- | --- | --- | --- | --- | --- |
| 0.103 ± 0.0166 | 0.0658 ± 0.0235 | 0.0528 ± 0.00975 | 0.0989 ± 0.0116 | CC[C@H](C)[C@H](NC(=O)[C@H](C)NC(=O)[C@H](CC(N)=O)NC(=O)[C@H](CC(N)=O)NC(=O)[C@H](CCCCN)NC(=O)[C@H](CO)NC(=O)[C@H](CC(C)C)NC(=O)[C@H](CC(C)C)NC(=O)[C@H](Cc1ccc(O)cc1)NC(=O)[C@H](C)NC(=O)[C@H](CO)NC(=O)[C@@H](NC(=O)[C@H](CC(=O)O)NC(=O)[C@H](CCC(=O)O)NC(=O)[C@H](Cc1ccc(OS(=O)(=O)O)cc1)NC(=O)[C@H](CO)NC(=O)[C@H](CC(=O)O)NC(=O)[C@H](CCC(=O)O)NC(=O)[C@H](Cc1ccc(OS(=O)(=O)O)cc1)NC(=O)[C@H](Cc1ccc(OS(=O)(=O)O)cc1)NC(=O)[C@H](CC(=O)O)NC(=O)CNC(=O)[C@@H](NC(=O)[C@H](Cc1c[nH]cn1)NC(=O)[C@@H](N)CCCCN)[C@@H](C)O)[C@@H](C)CC)C(=O)N[C@@H](CCC(=O)O)C(=O)N1CCC[C@H]1C(=O)N[C@@H](CCCNC(=N)N)C(=O)O [a2 peptide, KHTGDsYsYEDSsYEDISAYLLSKNNAIEPR] (H-KHTGD[sY][sY]EDS[sY]EDISAYLLSKNNAIEPR-OH) |  |  |
|  |  |  |  | N=C(N)NCCC[C@H](N)C(=O)O [arginine] | exceeding the affinity towards the active site by an order of magnitude |  |
|  |  |  |  | N=C(N)c1ccccc1 [benzamidine] | exceeding the affinity towards the active site by an order of magnitude |  |
|  |  |  |  | FIX wt: recombinant zymogenic factor IX wild-type, expressed in Escherichia coli and refolded |  | Kd ([2]; analyte incubated with 1 μM aprotinin (BPTI)): 0.0722 ± 0.0602 µM; Kd ([2]; analyte incubated with 1 mM benzamidine): 0.0836 ± 0.14 µM; higher affinity of zymogenic FIX wt than FIXa wt for activated factor VIIIa ([2]; in the presence of both benzamidine and BPTI): confirmed also when activated factor VIIIa was used as a binding partner; affinity to cofactor VIII relative to activated FIXa wt ([3]; FIX wt versus FIXa wt): more than 10 fold; Kd ([3]; analyte incubated with 1 μM aprotinin (BPTI), FVIII immobilized on dextran chip, SAM5 Blue surface acoustic wave, analyte 10-250 nM, 40 μL/min, 20 mM HEPES pH 7.5, 150 mM NaCl, 5 mM CaCl2, read-out: Kd, interaction with nonactivated factor VIII): 0.0658 ± 0.0212 µM |
| 0.374 ± 0.138 | 0.172 ± 0.0376 | 0.173 ± 0.0571 | 0.457 ± 0.121 | SVDQRGNQ [558‐loop, SVDQRGNQ] |  |  |
|  |  |  |  | basic pancreatic trypsin inhibitor [BPTI] |  | binding to activation peptide versus active site ([1]; factor IX/X, background statement, no reference given): do not bind to the activation peptide but to the active site exclusively |
